Entries after “also recorded” stand apart in the source; their conditions may differ.
Assays:
[1] = system: A20 cells; assay: Inhibition of anti-Fas induced apoptosis, Annexin-V/7-AAD flow cytometry; type: cell-based; conditions: anti-Fas (anti-CD95), four hours, Annexin V/7AAD staining
[2] = system: intestinal epithelial cells; assay: TUNEL staining of colon sections of C. rodentium infected mice; type: in vivo, C3H/HeOuJ mice; conditions: 20 mg/kg intraperitoneally on days 0, 1, 2, 3, and 5, colons day 6
Protocol: Colons of C3H/HeOuJ mice were harvested on day 6 and flushed with PBS. Tissues were fresh-frozen in O.C.T. Compound (Sakura Finetek, Zoeterwoude, The Netherlands) and stored at −80° C. Sections of 6 μm were cut and fixed with either 4% paraformaldehyde or ice-cold acetone for 1 h, dried, and stored at −20° C. TUNEL staining was performed using the In Situ Cell Death Detection Kit, TMR Red (Roche) according to manufacturer's instructions. For immunostaining, sections were blocked and incubated with primary antibodies in a humidified atmosphere for 1 hour at room temperature. After washing, conjugated secondary antibodies were added for 35 minutes. The slides were then washed and mounted with Fluoromount-G (Southern Biotech, Birmingham, Ala.). […] Analyses were performed using 10× and 20× dry objectives on a Nikon Eclipse E-600 fluorescence microscope and Adobe® Photoshop® software (Adobe Systems, San Jose, Calif.).
(§1) WT and mutant C. rodentium were prepared by incubation with shaking at 37° C. for 8 hours in LB broth medium. After 8 hours, the bacterial density was assessed at an optical density of 600 nm and confirmed by plating of serial dilutions. […]

[3] = system: infection induced barrier function; conditions: cited from earlier work
[4] = system: caspase-9 and caspase-3, caspase-8 and caspase-10, and caspase-12; conditions: cited from earlier work
[5] = system: IL-17+ CD4 T-cells in the lamina propria; assay: IL-17+ CD4 T-cells in lamina propria of C. rodentium infected mice (flow cytometry); type: in vivo, C57BL/6J and C3H/HeOuJ mice
Protocol: (§2) The small intestines and colons of C57BL/6J or C3H/HeOuJ mice were harvested at the indicated times. […] To prepare IEL/LPL, small intestines and colons were flushed with HBSS medium without calcium or magnesium (Gibco). Intestines were cut longitudinally and washed twice briefly in HBSS, 2% FBS in 6-well plates and then placed in 15 mL ice-cold HBSS, 2% FBS in 50-mL conical tubes and vortexed at maximum setting for 15-20 seconds. Tissue was removed using long forceps into a new tube with 15 mL ice-cold HBSS, 2% FBS and vortexed again twice, for a total of three washes. The tissues were then placed in 50-mL conical tubes containing 25 mL, HBSS, 5% FBS, and 1 mM DTT (Sigma-Aldrich). Tubes were incubated on a rocker at 37° C. for 20 minutes followed by vortexing extensively at maximum setting. For IEL, fractions were collected after two rounds of 20 minutes in HBSS/FBS/DTT. Tissues were then placed in fresh tubes containing 25 mL of PBS with 1.3 mM EDTA, incubated on a rocker for 60 minutes at 37° C. and vortexed. […]
as §1

[6] = system: IL-17+ CD4 T-cells in lamina propria; assay: DSS-induced damage of the intestinal epithelium, IL-17+ CD4 T-cells in lamina propria lymphocytes; type: in vivo, C57BL/6 mice; conditions: DSS in water for seven days, sacrificed on day 9, small intestines and colons
Protocol: as §2, §1

CC(C)[C@H](NC(=O)c1ccc2ccccc2n1)C(=O)N[C@@H](CC(=O)O)C(=O)COc1c(F)cccc1F [Q-VD-OPH]
Fas-induced apoptosis [1]: protected from undergoing Fas-induced apoptosis; also recorded: inhibits apoptosis | numbers of TUNEL+ cells [2]: decreased numbers of TUNEL^+ cells | effect on infection induced barrier function [3]: has no effects on infection induced barrier function | prevention of apoptosis by pathway ([4]; caspase-9 and caspase-3, caspase-8 and caspase-10, and caspase-12 pathways): equally effective in preventing apoptosis mediated by the three major apoptotic pathways | prevention of apoptosis compared with other caspase inhibitors [4]: significantly more effective in preventing apoptosis than ZVAD-fmk and Boc-D-fmk | toxicity to cells [4]: not toxic to cells even at extremely high concentrations | number of IL-17+ CD4 T-cells ([5]; C. rodentium infected C57BL/6J mice): levels similar to those found in uninfected mice | number of IL-17+ CD4 T-cells ([5]; both strains of C. rodentium infected mice): profoundly diminished the number of IL-17^+ CD4 T-cells

dextran sulfate sodium [dextran sulfate sodium (DSS)]
IL-17+ CD4 T-cells [6]: did not increase IL-17^+ CD4 T-cells over uninfected controls
